# Data taken from publication PMC5218480 (PLoS ONE, 2017).
# System: MV-4-11 cells
# Test: Gene expression microarray analysis (Affymetrix PrimeView) and GSEA
# Type: cell-based, human
# Parameters: RFU PODN (11730768_x_at) / Fold change /veh PODN (11730768_x_at) / RFU LINC00158 (11744669_a_at) / Fold change /veh LINC00158 (11744669_a_at) / RFU DUSP10 (11751237_a_at) / Fold change /veh DUSP10 (11751237_a_at) / RFU ID3 (11757404_x_at) / Fold change /veh ID3 (11757404_x_at) / RFU PLEKHG5 (11737974_s_at) / Fold change /veh PLEKHG5 (11737974_s_at) / RFU LRRC4B (11730491_at) / Fold change /veh LRRC4B (11730491_at) / RFU GIMAP4 (11747438_a_at) / Fold change /veh GIMAP4 (11747438_a_at) / RFU KRT8 (11758183_x_at) / Fold change /veh KRT8 (11758183_x_at) / RFU CNN1 (11734310_a_at) / Fold change /veh CNN1 (11734310_a_at) / RFU VPS37D (11726825_at) / Fold change /veh VPS37D (11726825_at) / RFU C10orf10 (11716522_x_at) / Fold change /veh C10orf10 (11716522_x_at) / RFU KIR2DL2 /// KIR2DL4 /// KIR2DL5A /// KIR2DL5B /// KIR2DS1 /// KIR2DS2 /// KIR2DS3 /// KIR2DS4 /// KIR3DL3 /// KIR3DL3 /// KIR3DS1 (11738374_at) / Fold change /veh KIR2DL2 /// KIR2DL4 /// KIR2DL5A /// KIR2DL5B /// KIR2DS1 /// KIR2DS2 /// KIR2DS3 /// KIR2DS4 /// KIR3DL3 /// KIR3DL3 /// KIR3DS1 (11738374_at) / RFU C1QL1 (11718748_at) / Fold change /veh C1QL1 (11718748_at) / RFU TMPRSS4 (11747572_a_at) / Fold change /veh TMPRSS4 (11747572_a_at) / RFU HAMP (11756126_x_at) / Fold change /veh HAMP (11756126_x_at) / RFU RNFT2 (11725882_a_at) / Fold change /veh RNFT2 (11725882_a_at) / RFU NR4A2 (11747474_a_at) / Fold change /veh NR4A2 (11747474_a_at) / RFU ABCC12 (11746883_a_at) / Fold change /veh ABCC12 (11746883_a_at) / RFU TMEM136 (11760407_x_at) / Fold change /veh TMEM136 (11760407_x_at) / RFU CLDN22 /// WWC2 (11732394_at) / Fold change /veh CLDN22 /// WWC2 (11732394_at) / RFU HLA-DPB1 (11760878_x_at) / Fold change /veh HLA-DPB1 (11760878_x_at) / RFU SPINT1 (11716480_a_at) / Fold change /veh SPINT1 (11716480_a_at) / RFU GAP43 (11754022_s_at) / Fold change /veh GAP43 (11754022_s_at) / RFU A4GNT (11735810_at) / Fold change /veh A4GNT (11735810_at) / RFU PRB3 (11715151_x_at) / Fold change /veh PRB3 (11715151_x_at) / RFU TUBB4B (11761932_at) / Fold change /veh TUBB4B (11761932_at) / RFU CAPN14 (11732068_a_at) / Fold change /veh CAPN14 (11732068_a_at) / RFU TMCC2 (11721928_a_at) / Fold change /veh TMCC2 (11721928_a_at) / RFU IRGQ (11745062_a_at) / Fold change /veh IRGQ (11745062_a_at) / RFU FAM174B (11720279_a_at) / Fold change /veh FAM174B (11720279_a_at) / RFU TMPRSS4 (11748680_a_at) / Fold change /veh TMPRSS4 (11748680_a_at) / RFU FAM212B (11763350_a_at) / Fold change /veh FAM212B (11763350_a_at) / RFU PLEKHG5 (11743358_a_at) / Fold change /veh PLEKHG5 (11743358_a_at) / RFU ZSCAN30 (11745921_a_at) / Fold change /veh ZSCAN30 (11745921_a_at) / RFU CMKLR1 (11741424_a_at) / Fold change /veh CMKLR1 (11741424_a_at) / RFU LOC101060620 /// MAPK8IP1 (11723275_at) / Fold change /veh LOC101060620 /// MAPK8IP1 (11723275_at) / RFU SPTSSB (11747773_x_at) / Fold change /veh SPTSSB (11747773_x_at) / RFU PRSS12 (11739890_at) / Fold change /veh PRSS12 (11739890_at) / RFU BIN1 (11741810_x_at) / Fold change /veh BIN1 (11741810_x_at) / RFU WNT11 (11732464_a_at) / Fold change /veh WNT11 (11732464_a_at) / RFU C10orf10 (11716521_a_at) / Fold change /veh C10orf10 (11716521_a_at) / RFU C5orf56 (11738089_at) / Fold change /veh C5orf56 (11738089_at) / RFU CYB561 (11721691_x_at) / Fold change /veh CYB561 (11721691_x_at) / RFU ANKRD19P (11752326_a_at) / Fold change /veh ANKRD19P (11752326_a_at) / RFU OR2T12 /// OR2T33 /// OR2T8 (11738714_s_at) / Fold change /veh OR2T12 /// OR2T33 /// OR2T8 (11738714_s_at) / RFU VCAN (11748164_a_at) / Fold change /veh VCAN (11748164_a_at) / RFU JSRP1 (11732532_at) / Fold change /veh JSRP1 (11732532_at) / RFU KRTAP10-11 (11738290_x_at) / Fold change /veh KRTAP10-11 (11738290_x_at) / RFU MYO3A (11730013_a_at) / Fold change /veh MYO3A (11730013_a_at) / RFU EBF3 (11725865_a_at) / Fold change /veh EBF3 (11725865_a_at) / RFU CAMK2N1 (11719241_x_at) / Fold change /veh CAMK2N1 (11719241_x_at) / RFU C5orf56 (11738088_a_at) / Fold change /veh C5orf56 (11738088_a_at) / RFU OLFML3 (11715873_a_at) / Fold change /veh OLFML3 (11715873_a_at) / RFU LOC100653217 /// NTM (11731650_a_at) / Fold change /veh LOC100653217 /// NTM (11731650_a_at) / RFU MAPK11 (11762145_a_at) / Fold change /veh MAPK11 (11762145_a_at) / RFU FIZ1 (11724087_x_at) / Fold change /veh FIZ1 (11724087_x_at) / RFU OASL (11726364_x_at) / Fold change /veh OASL (11726364_x_at) / RFU SOX15 (11748057_x_at) / Fold change /veh SOX15 (11748057_x_at) / RFU CD79A (11719716_a_at) / Fold change /veh CD79A (11719716_a_at) / RFU HIST1H1D (11736915_at) / Fold change /veh HIST1H1D (11736915_at) / RFU CASKIN2 (11723855_a_at) / Fold change /veh CASKIN2 (11723855_a_at) / RFU LOC730098 (11760151_x_at) / Fold change /veh LOC730098 (11760151_x_at) / RFU OR4N2 (11742367_at) / Fold change /veh OR4N2 (11742367_at) / RFU PRRT2 (11749266_a_at) / Fold change /veh PRRT2 (11749266_a_at) / RFU SNX32 (11753110_a_at) / Fold change /veh SNX32 (11753110_a_at) / RFU CDHR5 (11726645_a_at) / Fold change /veh CDHR5 (11726645_a_at) / RFU RCAN1 (11760418_a_at) / Fold change /veh RCAN1 (11760418_a_at) / RFU FAM167A (11723789_a_at) / Fold change /veh FAM167A (11723789_a_at) / RFU FAM26E (11764081_at) / Fold change /veh FAM26E (11764081_at) / RFU ISYNA1 (11749810_s_at) / Fold change /veh ISYNA1 (11749810_s_at) / RFU ACY1 (11761880_at) / Fold change /veh ACY1 (11761880_at) / RFU 11764098_at / Fold change /veh 11764098_at / RFU SAMD14 (11745864_x_at) / Fold change /veh SAMD14 (11745864_x_at) / RFU NPB (11741838_a_at) / Fold change /veh NPB (11741838_a_at) / RFU TMPRSS6 (11731388_a_at) / Fold change /veh TMPRSS6 (11731388_a_at) / RFU KRTAP10-2 (11738614_at) / Fold change /veh KRTAP10-2 (11738614_at) / RFU ARHGAP8 /// PRR5-ARHGAP8 (11727945_x_at) / Fold change /veh ARHGAP8 /// PRR5-ARHGAP8 (11727945_x_at) / RFU KRTAP5-7 /// NADSYN1 (11734609_at) / Fold change /veh KRTAP5-7 /// NADSYN1 (11734609_at) / RFU RASL12 (11751679_a_at) / Fold change /veh RASL12 (11751679_a_at) / RFU CDKN2B (11736163_a_at) / Fold change /veh CDKN2B (11736163_a_at) / RFU PRF1 (11729649_at) / Fold change /veh PRF1 (11729649_at) / RFU, ZNF638 /// ZNF638-IT1 / Fold change vs veh, ZNF638 /// ZNF638-IT1 / RFU, PANK3 / Fold change vs veh, PANK3 / RFU, SH3YL1 / Fold change vs veh, SH3YL1 / RFU, ZEB2 / Fold change vs veh, ZEB2 / RFU, NRIP1 / Fold change vs veh, NRIP1 / RFU, PTTG1IP / Fold change vs veh, PTTG1IP / RFU, CAPN2 / Fold change vs veh, CAPN2 / RFU, MED14 / Fold change vs veh, MED14 / RFU, SNORA58 / Fold change vs veh, SNORA58 / RFU, C1orf63 / Fold change vs veh, C1orf63 / RFU, LRRFIP1 / Fold change vs veh, LRRFIP1 / RFU, NDUFAF7 / Fold change vs veh, NDUFAF7 / RFU, SLC12A2 / Fold change vs veh, SLC12A2 / RFU, IBTK / Fold change vs veh, IBTK / RFU, ESF1 / Fold change vs veh, ESF1 / Fold change vs veh, TMEM50B / RFU, TAOK1 / Fold change vs veh, TAOK1 / RFU, ACBD3 / Fold change vs veh, ACBD3 / RFU, TMA16 / Fold change vs veh, TMA16 / RFU, RWDD3 / Fold change vs veh, RWDD3 / RFU, BCAT1 / Fold change vs veh, BCAT1 / RFU, EDEM3 / Fold change vs veh, EDEM3 / RFU, TMEM33 / Fold change vs veh, TMEM33 / RFU, WDR75 / Fold change vs veh, WDR75 / RFU, AHCTF1 / Fold change vs veh, AHCTF1 / RFU, TFRC / Fold change vs veh, TFRC / RFU, ZDHHC17 / Fold change vs veh, ZDHHC17 / RFU, NOM1 / Fold change vs veh, NOM1 / RFU, ARL8B / Fold change vs veh, ARL8B / RFU, ZBTB11 / Fold change vs veh, ZBTB11 / RFU, TAMM41 / Fold change vs veh, TAMM41 / RFU, KIAA1704 /// LOC100996395 / Fold change vs veh, KIAA1704 /// LOC100996395 / RFU, ING1 / Fold change vs veh, ING1 / RFU, TRMT61B / Fold change vs veh, TRMT61B / RFU, FUBP3 / Fold change vs veh, FUBP3 / RFU, TP53 / Fold change vs veh, TP53 / RFU, TNKS2 / Fold change vs veh, TNKS2 / RFU, ZFP14 / Fold change vs veh, ZFP14 / RFU, ACTR2 / Fold change vs veh, ACTR2 / RFU, PPP3R1 / Fold change vs veh, PPP3R1 / RFU, PIK3R1 / Fold change vs veh, PIK3R1 / RFU, HNRNPA1 / Fold change vs veh, HNRNPA1 / RFU, RNF170 / Fold change vs veh, RNF170 / RFU, ZNF28 / Fold change vs veh, ZNF28 / RFU, RNGTT / Fold change vs veh, RNGTT / RFU, OGT / Fold change vs veh, OGT / RFU, BRD1 / Fold change vs veh, BRD1 / RFU, MARS / Fold change vs veh, MARS / RFU, ZNF655 / Fold change vs veh, ZNF655 / RFU, FAHD1 / Fold change vs veh, FAHD1 / RFU, BDP1 / Fold change vs veh, BDP1 / RFU, LRRCC1 / Fold change vs veh, LRRCC1 / RFU, ARID1A / Fold change vs veh, ARID1A / RFU, ZNF146 / Fold change vs veh, ZNF146 / RFU, ZNF330 / Fold change vs veh, ZNF330 / RFU, GPN3 / Fold change vs veh, GPN3 / RFU, C9orf123 / Fold change vs veh, C9orf123 / RFU, N4BP2L2 / Fold change vs veh, N4BP2L2 / RFU, ARFIP1 / Fold change vs veh, ARFIP1 / RFU, FAM179B / Fold change vs veh, FAM179B / RFU, BCL10 / Fold change vs veh, BCL10 / RFU, UHRF1BP1L / Fold change vs veh, UHRF1BP1L / RFU, BET1 / Fold change vs veh, BET1 / RFU, CNOT2 / Fold change vs veh, CNOT2 / RFU, ZNF268 / Fold change vs veh, ZNF268 / Fold change vs veh, ZNF507 / RFU, DGCR2 / Fold change vs veh, DGCR2 / RFU, WDSUB1 / Fold change vs veh, WDSUB1 / Fold change vs veh, HSP90B1 /// MIR3652 / RFU, ADSS / Fold change vs veh, ADSS / RFU, GK / Fold change vs veh, GK / RFU, ZNF148 / Fold change vs veh, ZNF148 / RFU, TAF9 / Fold change vs veh, TAF9 / RFU, SLC1A5 / Fold change vs veh, SLC1A5 / RFU, SLMO2 / Fold change vs veh, SLMO2 / RFU, ABCC4 / Fold change vs veh, ABCC4 / RFU, LOC101060439 /// RAP1B / Fold change vs veh, LOC101060439 /// RAP1B / RFU, RFX7 / Fold change vs veh, RFX7 / RFU, GTPBP10 / Fold change vs veh, GTPBP10 / RFU, CNEP1R1 / Fold change vs veh, CNEP1R1 / RFU, BIVM-ERCC5 /// ERCC5 / Fold change vs veh, BIVM-ERCC5 /// ERCC5 / RFU, ILF3 / Fold change vs veh, ILF3 / RFU 11762660_at / Fold change /veh 11762660_at / RFU VCAN (11757783_s_at) / Fold change /veh VCAN (11757783_s_at) / RFU DDX43 (11728927_at) / Fold change /veh DDX43 (11728927_at) / RFU KRT8 (11758188_x_at) / Fold change /veh KRT8 (11758188_x_at) / RFU NKD1 (11759106_at) / Fold change /veh NKD1 (11759106_at) / RFU SRD5A1 (11742802_a_at) / Fold change /veh SRD5A1 (11742802_a_at) / RFU TPSAB1 /// TPSB2 (11721975_s_at) / Fold change /veh TPSAB1 /// TPSB2 (11721975_s_at) / RFU GSTM3 (11746129_a_at) / Fold change /veh GSTM3 (11746129_a_at) / RFU IL23R (11737362_x_at) / Fold change /veh IL23R (11737362_x_at) / RFU TMEM51 (11727254_a_at) / Fold change /veh TMEM51 (11727254_a_at) / RFU PIWIL2 (11732686_x_at) / Fold change /veh PIWIL2 (11732686_x_at) / RFU ORM1 (11744905_x_at) / Fold change /veh ORM1 (11744905_x_at) / RFU CCDC152 (11743942_at) / Fold change /veh CCDC152 (11743942_at) / RFU ECM1 (11717891_a_at) / Fold change /veh ECM1 (11717891_a_at) / RFU IL23R (11748794_a_at) / Fold change /veh IL23R (11748794_a_at) / RFU TNFAIP8L3 (11732012_x_at) / Fold change /veh TNFAIP8L3 (11732012_x_at) / RFU MBOAT4 (11741988_at) / Fold change /veh MBOAT4 (11741988_at) / RFU 11764193_at / Fold change /veh 11764193_at / RFU TMEM53 (11763286_at) / Fold change /veh TMEM53 (11763286_at) / RFU MAGEB2 (11727129_at) / Fold change /veh MAGEB2 (11727129_at) / RFU TMEM200A (11744735_a_at) / Fold change /veh TMEM200A (11744735_a_at) / RFU CCDC152 (11751479_a_at) / Fold change /veh CCDC152 (11751479_a_at) / RFU FAM211A (11726209_a_at) / Fold change /veh FAM211A (11726209_a_at) / RFU RGS16 (11746705_a_at) / Fold change /veh RGS16 (11746705_a_at) / RFU VCAN (11755009_s_at) / Fold change /veh VCAN (11755009_s_at) / RFU RHOB (11743442_s_at) / Fold change /veh RHOB (11743442_s_at) / RFU RGS16 (11720943_a_at) / Fold change /veh RGS16 (11720943_a_at) / RFU RGS16 (11720944_at) / Fold change /veh RGS16 (11720944_at) / RFU, VPS4B / Fold change vs veh, VPS4B / RFU, CREB1 / Fold change vs veh, CREB1 / RFU, DNAJC13 / Fold change vs veh, DNAJC13 / RFU, GNAQ / Fold change vs veh, GNAQ / RFU, CDK5R1 / Fold change vs veh, CDK5R1 / RFU, ZRANB3 / Fold change vs veh, ZRANB3 / RFU, CUL4A / Fold change vs veh, CUL4A / RFU, CCNY / Fold change vs veh, CCNY / RFU, UFL1 / Fold change vs veh, UFL1 / RFU, COG3 / Fold change vs veh, COG3 / RFU, DIAPH2 / Fold change vs veh, DIAPH2 / RFU, SKA2 / Fold change vs veh, SKA2 / RFU, AFF3 / Fold change vs veh, AFF3 / RFU, LMF1 / Fold change vs veh, LMF1 / RFU, IPO11 / Fold change vs veh, IPO11 / RFU, DFFB / Fold change vs veh, DFFB / RFU, FOXP1 / Fold change vs veh, FOXP1 / RFU, CARD8 / Fold change vs veh, CARD8 / RFU, STRN3 / Fold change vs veh, STRN3 / RFU, ADK / Fold change vs veh, ADK / RFU, RASSF2 / Fold change vs veh, RASSF2 / RFU, WIPF1 / Fold change vs veh, WIPF1 / RFU, LARP1B / Fold change vs veh, LARP1B / RFU, RASA1 / Fold change vs veh, RASA1 / RFU, RB1 / Fold change vs veh, RB1 / RFU, PPFIA1 / Fold change vs veh, PPFIA1 / RFU, MAT2A / Fold change vs veh, MAT2A / RFU, CCT5 / Fold change vs veh, CCT5 / RFU, WDR92 / Fold change vs veh, WDR92 / RFU, CUX1 / Fold change vs veh, CUX1 / RFU, TTC7A / Fold change vs veh, TTC7A / RFU, TMEM135 / Fold change vs veh, TMEM135 / RFU, DEPTOR / Fold change vs veh, DEPTOR / RFU, CPM / Fold change vs veh, CPM / RFU, DNAJB6 / Fold change vs veh, DNAJB6 / RFU, CACNA2D3 / Fold change vs veh, CACNA2D3 / RFU, DTX4 / Fold change vs veh, DTX4 / RFU, TFCP2 / Fold change vs veh, TFCP2 / RFU, GMCL1 /// GMCL1P1 / Fold change vs veh, GMCL1 /// GMCL1P1 / RFU, AEBP2 / Fold change vs veh, AEBP2 / RFU, SNHG1 /// SNORD22 /// SNORD25 /// SNORD26 /// SNORD27 /// SNORD28 /// SNORD29 /// SNORD31 / Fold change vs veh, SNHG1 /// SNORD22 /// SNORD25 /// SNORD26 /// SNORD27 /// SNORD28 /// SNORD29 /// SNORD31 / Fold change (Aza/veh), C12orf56 (ProbeSet 11735607_a_at) / Fold change (ACY-1035/veh), C12orf56 (ProbeSet 11735607_a_at) / Fold change (Aza/veh), FGFR1OP (ProbeSet 11751329_s_at) / Fold change (ACY-1035/veh), FGFR1OP (ProbeSet 11751329_s_at) / Fold change (Aza/veh), VPS36 (ProbeSet 11739960_a_at) / Fold change (ACY-1035/veh), VPS36 (ProbeSet 11739960_a_at) / RFU SYPL1 (11715823_x_at) / Fold change /veh SYPL1 (11715823_x_at) / RFU IGFBP7 (11715501_s_at) / Fold change /veh IGFBP7 (11715501_s_at) / RFU REEP3 (11722064_at) / Fold change /veh REEP3 (11722064_at) / RFU IGLL1 (11728026_x_at) / Fold change /veh IGLL1 (11728026_x_at): dose or concentration left out as unconfirmed
# Details: MV-4-11 cells, 48 hours
compound,measurement,value
Nc1ncn([C@@H]2O[C@H](CO)[C@@H](O)[C@H]2O)c(=O)n1 [azacitidine],Fold change /veh OR4N2 (11742367_at),1.01
